Test results published in US20240002450A1 (priority 2020, published 2024).
Bridge positions count the residues as written; N and C are the ends. Square brackets hold non-standard residues; d marks the D form. Peptide text beside a SMILES is read from it. S5 = C=CCCC[C@](C)(N)C(=O)O; βAla = NCCC(=O)O

test system: Makona variant of EBOV; assay type: cell-based, Ebola virus

**Q.** How did the “antiviral activity (prevention of EBOV infection)” value turn out when “HX1WTKNITX2KINQIIHDFVNK, wherein X1 is (R)-2-(7′-octenyl) alanine and X2 is (S)-2-(4′-pentenyl)Alanine [SEboV-1]” was run?
**A.** displayed antiviral activity

**Q.** With “HX1WTKX2ITDKINQIIHDFVNK, wherein each of X1 and X2 is (S)-2-(4′-pentenyl)Alanine [SEboV-2]” as the molecule, how does the “antiviral activity (prevention of EBOV infection)” value read?
**A.** displayed antiviral activity

test system: Zaire Ebola virus; assay type: cell-based

**Q.** With “HDWTKNITDKIX1QIIX2DFVDK, wherein each of X1 and X2 is (S)-2-(4′-pentenyl)Alanine [Ac9]” as the molecule, how does the “infected cells after 24 hours of infection” value (“infected cells after 24 hours” below) read?
**A.** almost no infected cells

**Q.** And the “inhibition of virus infection at six hours post-infection” value (shortened to “inhibition of virus infection”)?
**A.** inhibited the virus

**Q.** For “HDWTX1NIX2DKIX3QIIHDFVDK, wherein X1 is (S)-2-(4′-pentenyl)Alanine, X2 is 2,2-bis(4-pentenyl)glycine, and X3 is (S)-2-(4′-pentenyl)Alanine [Ac5]”, which “infected cells after 24 hours” value is on record?
**A.** almost no infected cells

**Q.** What about the “inhibition of virus infection” value of the same molecule?
**A.** inhibited the virus

**Q.** How did the “infected cells after 24 hours” value turn out when “HX1WTKX2ITDKIDQIIHDFVDK, wherein each of X1 and X2 is (S)-2-(4′-pentenyl)Alanine [Ac3]” was run?
**A.** almost no infected cells

**Q.** And the “inhibition of virus infection” value?
**A.** inhibited the virus

**Q.** Which results are given for “X1DWTKNIX2DKIDQIIHDFVDK, wherein X1 is (R)-2-(7′-octenyl) alanine and X2 is (S)-2-(4′-pentenyl)Alanine [Ac4]”?
**A.** infected cells after 24 hours of infection: almost no infected cells; inhibition of virus infection at six hours post-infection: inhibited the virus

test system: Huh-7 hepatocellular carcinoma cells

**Q.** How did the “cell permeability (ability to enter cells)” value turn out when `CC[C@H](C)[C@H](NC(=O)[C@H](CCC(N)=O)NC(=O)[C@H](CC(N)=O)NC(=O)[C@@H](NC(=O)[C@]1(C)CCCC=CCCC[C@](C)(NC(=O)[C@H](CCCCN)NC(=O)[C@@H](NC(=O)[C@H](Cc2c[nH]c3ccccc23)NC(=O)[C@H](CC(N)=O)NC(=O)[C@H](Cc2c[nH]cn2)NC(=O)CCNC(C)=O)[C@@H](C)O)C(=O)N[C@@H]([C@@H](C)CC)C(=O)N[C@@H]([C@@H](C)O)C(=O)N[C@@H](CC(N)=O)C(=O)N1)[C@@H](C)CC)C(=O)N[C@H](C(=O)N[C@@H](Cc1c[nH]cn1)C(=O)N[C@@H](CC(=O)O)C(=O)N[C@@H](Cc1ccccc1)C(=O)N[C@H](C(=O)N[C@@H](CC(N)=O)C(=O)N[C@@H](CCCCN)C(N)=O)C(C)C)[C@@H](C)CC` [SEboV-9, HNWTKX1ITNX2INQIIHDFVNK, wherein each of X1 and X2 is (S)-2-(4′-pentenyl)Alanine] (Ac-[βAla]HNWTK[S5]ITN[S5]INQIIHDFVNK-NH2; staple 7-11) was run?
**A.** readily penetrated cells

**Q.** For `CC[C@H](C)[C@H](NC(=O)[C@H](CCCCN)NC(=O)[C@H](CC(=O)O)NC(=O)[C@@H](NC(=O)[C@@H](NC(=O)[C@H](CC(N)=O)NC(=O)[C@H](CCCCN)NC(=O)[C@@H](NC(=O)[C@H](Cc1c[nH]c2ccccc12)NC(=O)[C@H](CC(=O)O)NC(=O)[C@H](Cc1c[nH]cn1)NC(=O)CCNC(C)=O)[C@@H](C)O)[C@@H](C)CC)[C@@H](C)O)C(=O)N[C@@H](CC(=O)O)C(=O)N[C@@H](CCC(N)=O)C(=O)N[C@H](C(=O)N[C@H](C(=O)N[C@@H](Cc1c[nH]cn1)C(=O)N[C@@H](CC(=O)O)C(=O)N[C@@H](Cc1ccccc1)C(=O)N[C@H](C(=O)N[C@@H](CC(=O)O)C(=O)N[C@@H](CCCCN)C(N)=O)C(C)C)[C@@H](C)CC)[C@@H](C)CC` [WT EboV, reference compound], which “cell permeability (ability to enter cells)” value is on record?
**A.** not cell permeable
